# Source: patent US20120195938A1, “FORMULATIONS AND METHODS FOR RECOVERY FROM DENTAL SURGERY” (priority 2007, published 2012)
# Columns and labels:
# [1] = tested on: Runx2; test: RT-PCR gene expression in hMSCs: Runx2; assay type: cell-based, Human; details: hMSC, growth media, melatonin 3 × 10^−7 molar, dexamethasone 1 × 10^−7 molar
# Description: (§1) Human mesenchymal stem cells (hMSCs) were purchased through LONZA BIOSCIENCES. These cells were seeded at a density of approximately 7500 cells/cm^2 upon receipt. Since hMSCs spontaneously differentiate into various cell types after 8 to 9 passages, cells passaged 3 to 4 times were used for each of the examples disclosed herein. Supplemented DMEM media was refreshed every third day during culture.
# (§2) Cultures of hMSCs were passaged in growth medium until a sufficient number of flasks for differentiation studies were obtained. Growth medium was removed and replaced with a variety of experimental solutions as described more fully hereinbelow. For qualitative alkaline phosphatase assays described below, the cells were seeded on collagen coated cover slips (BIOCOAT®) at 2000 cells/cm^2. A volume of 3 ml of media was placed into the wells for 5 and 15 days according to the procedures below. For the reverse-transcriptase polymerase chain reaction studies described below, the cells were cultured in their respective media for 5, 10, or 20 days.
# (§3) Cells were plated and grown using the general techniques described in Examples 1 and 2. The expression of numerous genes was assessed for cells at Days 5, 10, and 20. Cells were grown in the media as detailed in Tables 1 and 2 below. The expression of the indicated genes was assessed and reported as x-fold increases over the level of normalized gene expression to glyceraldehyde-3-phosphate dehydrogenase (GAPDH) in cells cultured in grown medium (Table 1).
# The reaction protocol was completed in a BIO-RAD CHROMO4 Real Time Detection System using the iScript One-Step RT-PCR Kit (BIO-RAD, Hercules, Calif.). Each reaction mixture contained […] of RNA. The 50 μL reaction mixture was placed in the thermal cycler and incubated at 55° C. for 10 minutes, 5 minutes at 95° C. for cDNA synthesis and reverse transcriptase inactivation. The PCR cycling was completed after 45 cycles; 10 seconds at 95° C., 30 seconds at 57° C. A melt curve analysis was completed; 1 minute at 95° C., 1 minute at 55° C. and 10 seconds at 55° C. for 80 cycles, increasing 0.5° C. each cycle. The data was collected and analyzed using the MC OPTICON software.
# For the second PCR run, the gene Runx2 was included instead of BSP. Runx2 is a transcription factor required for all remaining steps of osteoblastic differentiation to occur. Accordingly, it is a specific early marker of osteoblastic differentiation.
# [2] = tested on: alkaline phosphatase activity in hMSC cultures; test: Quantitative alkaline phosphatase assay in hMSC cultures; assay type: cell-based, Human; details: differentiation medium, dexamethasone 1×10^−7 M, melatonin 3×10^−7 M, 3.5% (v/v) PRP
# Description: Human mesenchymal stem cells (hMSCs) were purchased through LONZA BIOSCIENCES. These cells were seeded at a density of approximately 7500 cells/cm^2 upon receipt. Since hMSCs spontaneously differentiate into various cell types after 8 to 9 passages, cells passaged 3 to 4 times were used for each of the examples disclosed herein. Supplemented DMEM media was refreshed every third day during culture. Cultures of hMSCs were passaged in growth medium until a sufficient number of flasks for differentiation studies were obtained. Growth medium was removed and replaced with a variety of experimental solutions as described more fully hereinbelow. For qualitative alkaline phosphatase assays described below, the cells were seeded on collagen coated cover slips (BIOCOAT®) at 2000 cells/cm^2. A volume of 3 ml of media was placed into the wells for 5 and 15 days according to the procedures below. […] At 5 days and 15 days, cultures in each condition were quantitatively assessed for alkaline phosphatase activity (μg of alkaline phosphatase per mL of solution). Quantitative alkaline phosphatase assays (ANASPEC, California) were completed according to manufacturers' instructions. […] The plate was incubated at room temperature for 30 minutes and the developing color was measured immediately using a BIO-TEK KINETIC MICROPLATE READER Model E[…] […]
# [3] = tested on: BGLAP (osteocalcin); test: RT-PCR gene expression in hMSCs: osteocalcin; details: hMSC, growth media, melatonin 3 × 10^−7 molar, dexamethasone 1 × 10^−7 molar
# [4] = tested on: glycoprotein-IIβ (GPIIβ or GPIIB); test: RT-PCR gene expression in hMSCs: GPIIB; assay type: cell-based, Human; details: hMSC, growth media, melatonin 3 × 10^−7 molar, dexamethasone 1 × 10^−7 molar
# Description: as §1, §2, §3
# The genes of interest were selected based upon their appearance in platelets and mesenchymal stem cells differentiating into osteoblasts. Glyceraldehyde-3 phosphate dehydrogenase (GAPDH) is a well characterized housekeeper gene for differentiating hMSCs. The primers used were: forward: 5′ […] (SEQ ID No. 1), reverse: […] (SEQ ID No. 2). The gene for bone sialoprotein (BSP) was chosen because it is expressed during the differentiation of hMSCs, prior to the mineralization phase, but represents a mature functioning osteoblast. The primers were forward: 5′ […] (SEQ ID No. 3), reverse: […] (SEQ ID No. 4). The gene BGLAP (osteocalcin) was chosen because it is definitive marker for functioning osteoblasts at 21 days. The primers were: forward: 5′ […] (SEQ ID No. 5), reverse: […] (SEQ ID No. 6). The gene for glycoprotein-IIβ (GPIIβ or GPIIB) was chosen because it is expressed in developing megakaryocytes and found in platelets. The primers were: forward: […] (SEQ ID No. 7), reverse: […] (SEQ ID No. 8).
# The reaction protocol was completed in a BIO-RAD CHROMO4 Real Time Detection System using the iScript One-Step RT-PCR Kit (BIO-RAD, Hercules, Calif.). Each reaction mixture contained 100 nM of RNA. […] The data was collected and analyzed using the MC OPTICON software.
# [5] = tested on: human periodontal ligament cells; details: media supplemented; Hayami et al., Bone (2007); cited from earlier work
"alkaline phosphatase activity ([2]; Day 5, FIG. 1B)","alkaline phosphatase activity ([2]; Day 15, FIG. 1B)",Structure (SMILES),"Runx2 mRNA expression, x-fold increase compared to untreated growth control ([1]; Day 5, n = 3) [x-fold]","Runx2 mRNA expression, x-fold increase compared to untreated growth control ([1]; Day 10, n = 3) [x-fold]","Runx2 mRNA expression, x-fold increase compared to untreated growth control ([1]; Day 20, n = 3) [x-fold]","Osteocalcin mRNA expression, x-fold increase compared to untreated growth control ([3]; Day 5, n = 3) [x-fold]","Osteocalcin mRNA expression, x-fold increase compared to untreated growth control ([3]; Day 5, n = 3, listed as melatonin)","Osteocalcin mRNA expression, x-fold increase compared to untreated growth control ([3]; Day 10, n = 3) [x-fold]","Osteocalcin mRNA expression, x-fold increase compared to untreated growth control ([3]; Day 20, n = 3) [x-fold]","GPIIB mRNA expression, x-fold increase compared to untreated growth control ([4]; Day 10, n = 3) [x-fold]","GPIIB mRNA expression, x-fold increase compared to untreated growth control ([4]; Day 20, n = 3) [x-fold]",osteoblast-specific cell markers in culture [5]
showed an effect,elevated alkaline phosphatase activity,"COc1ccc2[nH]cc(CCNC(C)=O)c2c1 [Melatonin, melatonin]",269.75,14.39,129.83,260.38,high levels,1269.3,1295.79,968.86,2432.97,–
–,–,"C[C@@H]1C[C@H]2[C@@H]3CCC4=CC(=O)C=C[C@]4(C)[C@@]3(F)[C@@H](O)C[C@]2(C)[C@@]1(O)C(=O)CO [Dexamethasone, dexamethasone]",138.04,4.16,15.29,70.22,–,142.21,998.82,11.59,4993.43,–
–,–,"C[C@@H]1C[C@H]2[C@@H]3CCC4=CC(=O)C=C[C@]4(C)[C@@]3(F)[C@@H](O)C[C@]2(C)[C@@]1(O)C(=O)COP(=O)(O)O [dexamethasone sodium phosphate solution, Dexamethasone sodium phosphate]",–,–,–,–,–,–,–,–,–,increased osteoblast-specific cell markers
